In test [1] the target is T1, human URAT1 (Homo sapiens, UniProt Q96S37).
T1 construct: hURAT1 and rURAT1 are 553 amino acid proteins with 12 transmembrane segments; expressed in transfected cells; host or cells: URAT1-transfected cells (HEK-293T per the transfection section)
T1 sequence (Q96S37 1-553): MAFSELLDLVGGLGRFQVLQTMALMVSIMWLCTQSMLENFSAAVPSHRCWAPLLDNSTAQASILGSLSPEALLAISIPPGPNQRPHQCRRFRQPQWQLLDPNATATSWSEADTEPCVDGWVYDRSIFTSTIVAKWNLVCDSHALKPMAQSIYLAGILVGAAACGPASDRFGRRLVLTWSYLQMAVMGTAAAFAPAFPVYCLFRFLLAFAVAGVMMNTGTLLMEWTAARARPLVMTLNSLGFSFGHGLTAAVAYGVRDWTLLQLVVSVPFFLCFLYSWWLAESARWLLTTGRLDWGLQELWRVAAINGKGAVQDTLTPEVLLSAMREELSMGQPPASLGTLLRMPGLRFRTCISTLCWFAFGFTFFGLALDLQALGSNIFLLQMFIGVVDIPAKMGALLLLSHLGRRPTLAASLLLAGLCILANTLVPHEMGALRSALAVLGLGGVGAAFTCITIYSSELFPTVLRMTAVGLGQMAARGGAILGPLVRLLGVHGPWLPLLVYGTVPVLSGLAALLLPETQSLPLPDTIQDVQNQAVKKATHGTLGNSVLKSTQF
Kind of test: ^3H-RDEA3170 URAT1 membrane binding assay. As to the method: (§1) Membranes were prepared from URAT1-transfected cells. […] Cells were lysed with 100 strokes in a dounce homogenizer using a tight-fitting “B” stem. Lysates were transferred to 1.5 ml Eppendorf tubes and centrifuged at 250 rcf for 5 minutes at 2 °C, and supernatants were transferred to fresh tubes and centrifuged again at 18,000 rcf for 20 minutes at 2 °C. The pellets (membrane fractions) were resuspended in 1 ml of ice-cold binding buffer containing protease inhibitors and frozen at −80 °C. Protein was measured using the Bio-Rad protein assay dye reagent concentrate.
(§2) To initiate binding, membranes at 2.5 μg total protein were incubated with ^3H-RDEA3170 for 30 minutes at room temperature. […] The plates were then subjected to scintillation counting. All samples were assayed in triplicate.

Test [2] addresses T2, rat URAT1 (Rattus norvegicus, UniProt Q3ZAV1).
T2 construct: hURAT1 and rURAT1 are 553 amino acid proteins with 12 transmembrane segments; expressed in transfected cells; host or cells: URAT1-transfected cells (HEK-293T per the transfection section)
The test is described as follows: ^3H-RDEA3170 URAT1 membrane binding assay. To be noted: 500 nM ^3H-RDEA3170; membranes from transfected cells. The procedure:
as §1, §2

The record followed here is PMC5054527, “Mechanism of high affinity inhibition of the human urate transporter URAT1” (Scientific Reports, 2016).

SMILES strings stand for the structures.

T2 sequence (Q3ZAV1 whole entry): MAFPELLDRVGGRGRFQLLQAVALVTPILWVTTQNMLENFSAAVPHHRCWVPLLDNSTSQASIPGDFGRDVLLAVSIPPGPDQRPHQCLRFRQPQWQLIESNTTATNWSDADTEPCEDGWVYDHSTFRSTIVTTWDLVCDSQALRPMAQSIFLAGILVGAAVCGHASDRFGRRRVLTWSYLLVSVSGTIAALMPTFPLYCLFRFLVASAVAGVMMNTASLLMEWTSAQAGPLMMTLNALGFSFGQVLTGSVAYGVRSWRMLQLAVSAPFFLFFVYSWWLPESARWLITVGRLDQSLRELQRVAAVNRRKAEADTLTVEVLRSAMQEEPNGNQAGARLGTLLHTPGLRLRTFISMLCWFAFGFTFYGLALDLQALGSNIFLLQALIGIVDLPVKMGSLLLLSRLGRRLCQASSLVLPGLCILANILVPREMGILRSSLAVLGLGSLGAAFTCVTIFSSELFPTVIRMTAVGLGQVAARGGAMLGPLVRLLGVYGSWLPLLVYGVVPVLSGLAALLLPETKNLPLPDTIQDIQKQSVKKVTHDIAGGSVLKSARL

For `CC(C)(Sc1ccncc1-c1ccc(C#N)c2ccccc12)C(=O)O` [^3H-RDEA3170, 2-((3-(4-cyanonaphthalen-1-yl)pyrindin-4-yl)thio)-2-methylpropanoic acid], the “binding of probe to human URAT1 membranes” value in test [1] (500 nM ^3H-RDEA3170, membranes from transfected cells) is reported as “binds to human URAT1”. Moreover, in test [2], the “binding of probe to rat URAT1 membranes” value was “not rat URAT1”.

In the case of `CCCN(CCC)S(=O)(=O)c1ccc(C(=O)O)cc1` [probenecid], the “displacement of ^3H-RDEA3170 binding to hURAT1” value in test [1] (human URAT1 membranes, 10 nM ^3H-RDEA3170) is listed as “displace binding of the probe”.
